Data reported in patent publication US9511134B2, “Inducing immune responses to influenza virus using polypeptide and nucleic acid compositions” (priority 2006, dated 2016).
Like-named read-outs stand apart in the source and are kept apart here. Where no end group is shown, it is not given here.

Key:
Experiment in all cases: biochemical
Format in all cases: binding
[1] = molecular target: T1, DRB1*0101 (Homo sapiens, UniProt P01903+P01911, A100R/D57E/F55L/F60I/F76Y/I96L/L162R/M171V/P40L/Q125E/R42F/V115G/Y59C)
T1 construct: made in house; host or cells: EBV-transformed homozygous human B cell lines, transfected fibroblasts or single-allele 721.221 transfectants

[2] = molecular target: DRB1*1302 (Homo sapiens, UniProt P01903+P01911, A100E/A169T/K41T/L162R/M171V/P40S/Q125H/Q178H/Q39Y/Q99D/R42S/S66N/T262R/V115G/W38E/Y61H); details: read-out: IC50 nM to purified HLA DRB1*1302
DRB1*1302, sequence (P01903 26-254 limits assumed, other chains not shown): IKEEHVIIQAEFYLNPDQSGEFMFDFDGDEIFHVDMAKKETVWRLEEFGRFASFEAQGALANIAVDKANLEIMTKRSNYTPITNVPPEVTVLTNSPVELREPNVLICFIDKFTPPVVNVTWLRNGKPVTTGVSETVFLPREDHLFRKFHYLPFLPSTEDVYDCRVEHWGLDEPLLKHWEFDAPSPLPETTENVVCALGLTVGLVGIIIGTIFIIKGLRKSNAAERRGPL

[3] = molecular target: T2, DRB1*1501 (Homo sapiens, UniProt P01903+P01911); details: read-out: IC50 nM to purified HLA DRB1*1501
T2 construct: made in house; host or cells: EBV-transformed homozygous human B cell lines, transfected fibroblasts or single-allele 721.221 transfectants

[4] = molecular target: T3, DRB4*0101 (Homo sapiens, UniProt P01903+P13762, G164S)
T3 construct: made in house; host or cells: EBV-transformed homozygous human B cell lines, transfected fibroblasts or single-allele 721.221 transfectants

[5] = molecular target: T4, DRB1*0401 (Homo sapiens, UniProt P01903+P01911, A100K/A169T/F76Y/I96L/K127E/L162R/M171V/N62H/P40V/Q125Y/R42H/S133A/S149N/S66Y/V115G/V209L/W38E); details: read-out: IC50 nM to purified HLA DRB1*0401
T4 construct: made in house; host or cells: EBV-transformed homozygous human B cell lines, transfected fibroblasts or single-allele 721.221 transfectants

[6] = molecular target: T5, DRB1*0301 (Homo sapiens, UniProt P01903+P01911, A100K/A102G/A103R/A169T/F55Y/I96L/K41T/L162R/M171V/P40S/Q125H/Q178H/Q39Y/R42S/S66N/T106N/T262R/W38E/Y61H)
T5 construct: made in house; host or cells: EBV-transformed homozygous human B cell lines, transfected fibroblasts or single-allele 721.221 transfectants
T5 sequence (P01903 26-254, other chains not shown): as the sequence (P01903 26-254 limits assumed, other chains not shown) above

[7] = molecular target: DRB1*0404 (Homo sapiens, UniProt P01903+P01911, A100R/A169T/F76Y/I96L/K127E/L162R/M171V/N62H/P40V/Q125Y/R42H/S133A/S149N/S66Y/V209L/W38E); details: IC50 nM to purified HLA DRB1*0404
[8] = IC50 nM to purified HLA DRB1*0101
[9] = IC50 nM to purified HLA DRB4*0101
[10] = IC50 nM to purified HLA DRB1*0101, Table 4
[11] = IC50 nM to purified HLA DRB4*0101, Table 4

`CC[C@H](C)[C@H](NC(=O)[C@H](CC(C)C)NC(=O)[C@H](Cc1c[nH]c2ccccc12)NC(=O)[C@@H](NC(=O)[C@@H](N)C(C)C)C(C)C)C(=O)N[C@@H](CCCCN)C(=O)N[C@@H](CCCCN)C(=O)N[C@@H](CC(N)=O)C(=O)N[C@@H](CO)C(=O)N[C@H](C(=O)N[C@@H](Cc1ccc(O)cc1)C(=O)N1CCC[C@H]1C(=O)N[C@H](C(=O)N[C@H](C(=O)N[C@@H](CCCCN)C(=O)N[C@@H](CCCNC(=N)N)C(=O)O)[C@@H](C)CC)[C@@H](C)O)[C@@H](C)O` [Flu.HA.163] gave an IC50 [1, 8] of 464 nM, an IC50 [2] of 14 nM and an IC50 [3] of 99 nM. For the same compound, the IC50 [4, 9] was 1660 nM.

With `CC[C@H](C)[C@H](N)C(=O)N[C@@H](Cc1ccc(O)cc1)C(=O)N[C@@H](CCC(N)=O)C(=O)N[C@H](C(=O)N[C@@H](CC(C)C)C(=O)N[C@@H](CO)C(=O)N[C@H](C(=O)N[C@@H](Cc1ccc(O)cc1)C(=O)N[C@@H](CO)C(=O)N[C@H](C(=O)N[C@H](C(=O)N[C@@H](C)C(=O)N[C@@H](CO)C(=O)N[C@@H](CO)C(=O)N[C@@H](CC(C)C)C(=O)N[C@@H](C)C(=O)O)C(C)C)[C@@H](C)O)[C@@H](C)CC)[C@@H](C)CC` [Flu.HA.529] the IC50 [1, 8] was 55 nM, the IC50 [1, 10] was 55 nM and the IC50 ([5]; Table 4) was 89 nM. The IC50 [5] was 89 nM, the IC50 [2] was 13 nM and the IC50 ([3]; Table 4) was 4.7 nM. The IC50 [3] was 4.7 nM, the IC50 [4, 9] was 18 nM and the IC50 [4, 11] was 18 nM.

Work on `CC[C@H](C)[C@H](N)C(=O)N[C@@H](CC(C)C)C(=O)N[C@@H](CO)C(=O)N[C@H](C(=O)N[C@@H](Cc1ccc(O)cc1)C(=O)N[C@@H](CO)C(=O)N[C@H](C(=O)N[C@H](C(=O)N[C@@H](C)C(=O)N[C@@H](CO)C(=O)N[C@@H](CO)C(=O)N[C@@H](CC(C)C)C(=O)N[C@@H](C)C(=O)N[C@@H](CC(C)C)C(=O)N[C@@H](C)C(=O)N[C@H](C(=O)O)[C@@H](C)CC)C(C)C)[C@@H](C)O)[C@@H](C)CC` [Flu.HA.532] yielded an IC50 [1, 8] of 11 nM, an IC50 [1, 10] of 11 nM and an IC50 ([5]; Table 4) of 91 nM. For the same compound, the IC50 [5] was 91 nM, the IC50 [2] was 7.6 nM and the IC50 ([3]; Table 4) was 20 nM. For the same compound, the IC50 [3] was 20 nM, the IC50 [4, 9] was 824 nM and the IC50 [4, 11] was 824 nM.

Compound `CC[C@H](C)[C@H](NC(=O)[C@@H]1CCCN1C(=O)[C@H](CCCNC(=N)N)NC(=O)[C@@H](NC(=O)[C@H](CCCCN)NC(=O)[C@H](CC(C)C)NC(=O)[C@H](Cc1c[nH]c2ccccc12)NC(=O)[C@H](CCC(=O)O)NC(=O)[C@H](CCSC)NC(=O)[C@H](CC(C)C)NC(=O)[C@H](C)NC(=O)[C@@H](N)CCC(=O)O)[C@@H](C)O)C(=O)N[C@@H](CC(C)C)C(=O)N[C@@H](CO)C(=O)N1CCC[C@H]1C(=O)O` [Flu.M1.43] has an IC50 [1, 8] of 9.5 nM, an IC50 [2] of 380 nM and an IC50 [3] of 18 nM. It also gave an IC50 [4, 9] of 5510 nM.

Compound `CC[C@H](C)[C@H](NC(=O)[C@H](CCCNC(=N)N)NC(=O)[C@@H](NC(=O)[C@H](CO)NC(=O)[C@H](CC(N)=O)NC(=O)[C@H](CC(=O)O)NC(=O)[C@H](CCCCN)NC(=O)[C@H](CO)NC(=O)[C@H](Cc1ccc(O)cc1)NC(=O)[C@@H](NC(=O)[C@H](C)NC(=O)[C@@H](N)Cc1c[nH]c2ccccc12)C(C)C)[C@@H](C)CC)C(=O)NCC(=O)N[C@@H](CO)C(=O)N[C@@H](CCCCN)C(=O)O` [Flu.NA.77] has an IC50 [1, 8] of 5400 nM, an IC50 [5] of 1600 nM and an IC50 [2] of 36 nM. For the same compound, the IC50 [3] was 642 nM and the IC50 [4, 9] was 19500 nM.

`CSCC[C@H](NC(=O)[C@H](CC(C)C)NC(=O)[C@@H](NC(=O)[C@H](CCCNC(=N)N)NC(=O)[C@H](Cc1c[nH]cn1)NC(=O)[C@@H]1CCCN1C(=O)[C@H](CO)NC(=O)[C@H](CCCNC(=N)N)NC(=O)[C@H](CC(=O)O)NC(=O)[C@H](CCCCN)NC(=O)[C@@H](NC(=O)[C@@H](NC(=O)CNC(=O)[C@@H](N)CC(N)=O)[C@@H](C)O)C(C)C)[C@@H](C)O)C(=O)N[C@@H](CO)C(=O)O` [Flu.NA.126] showed an IC50 [1, 8] of 581 nM, an IC50 [5] of 17900 nM and an IC50 [2] of 7930 nM. The IC50 [4, 9] was 8880 nM.

`CC[C@H](C)[C@H](NC(=O)[C@H](CCC(N)=O)NC(=O)[C@H](Cc1ccc(O)cc1)NC(=O)[C@H](CCC(=O)O)NC(=O)[C@H](CC(C)C)NC(=O)[C@@H](N)CC(N)=O)C(=O)NCC(=O)N[C@@H](Cc1ccc(O)cc1)C(=O)N[C@H](C(=O)N[C@@H](CS)C(=O)N[C@@H](CO)C(=O)NCC(=O)N[C@H](C(=O)N[C@@H](Cc1ccccc1)C(=O)NCC(=O)O)C(C)C)[C@@H](C)CC` [Flu.NA.289] showed an IC50 [1, 8] of 1130 nM, an IC50 [5] of 975 nM and an IC50 [2] of 41 nM. For the same compound, the IC50 [3] was 13 nM and the IC50 [4, 9] was 354 nM.

`CC[C@H](C)[C@H](NC(=O)[C@H](CC(C)C)NC(=O)[C@H](CCCNC(=N)N)NC(=O)CNC(=O)[C@@H](N)CCC(=O)O)C(=O)N[C@@H](CCC(N)=O)C(=O)N[C@@H](CC(N)=O)C(=O)N[C@@H](CO)C(=O)N[C@H](C(=O)N[C@H](C(=O)N[C@H](C(=O)N[C@@H](CCC(=O)O)C(=O)N[C@@H](CCCNC(=N)N)C(=O)N[C@@H](CCSC)C(=O)N[C@H](C(=O)O)C(C)C)[C@@H](C)CC)[C@@H](C)O)[C@@H](C)CC` [Flu.NP.56] showed an IC50 [2] of 55 nM and an IC50 [4, 9] of 15 nM.

For `CC[C@H](C)[C@H](NC(=O)[C@H](CO)NC(=O)[C@H](CC(N)=O)NC(=O)[C@@H](N)CCC(N)=O)C(=O)N[C@H](C(=O)N[C@H](C(=O)N[C@@H](CCC(=O)O)C(=O)N[C@@H](CCCNC(=N)N)C(=O)N[C@@H](CCSC)C(=O)N[C@H](C(=O)N[C@@H](CC(C)C)C(=O)N[C@@H](CO)C(=O)N[C@@H](C)C(=O)N[C@@H](Cc1ccccc1)C(=O)N[C@@H](CC(=O)O)C(=O)O)C(C)C)[C@@H](C)CC)[C@@H](C)O` [Flu.NP.61], the IC50 [5] was 430 nM, the IC50 ([3]; Table 4) was 1200 nM and the IC50 [3] was 1200 nM. It also gave an IC50 ([4]; read-out: IC50 nM to purified HLA DRB4*0101) of 39 nM.

`CC[C@H](C)[C@H](NC(=O)[C@H](CCC(=O)O)NC(=O)[C@H](CC(=O)O)NC(=O)[C@H](CC(C)C)NC(=O)[C@H](CCC(=O)O)NC(=O)[C@@H](NC(=O)[C@H](Cc1c[nH]c2ccccc12)NC(=O)[C@@H](NC(=O)[C@@H](N)CO)[C@@H](C)CC)[C@@H](C)CC)C(=O)NCC(=O)N[C@@H](CCC(=O)O)C(=O)N[C@@H](CC(=O)O)C(=O)N[C@H](C(=O)N[C@@H](C)C(=O)N1CCC[C@H]1C(=O)O)C(C)C` [Flu.PA.423] gave an IC50 [1, 8] of 13400 nM, an IC50 [6] of 59 nM and an IC50 [5] of 5400 nM. The IC50 [7] was 7610 nM.

For `CC[C@H](C)[C@H](NC(=O)[C@H](CCSC)NC(=O)[C@H](CC(N)=O)NC(=O)[C@@H](N)CC(N)=O)C(=O)N[C@@H](CC(N)=O)C(=O)N[C@@H](CC(N)=O)C(=O)N[C@@H](CC(=O)O)C(=O)N[C@@H](CC(C)C)C(=O)NCC(=O)N1CCC[C@H]1C(=O)N[C@@H](C)C(=O)N[C@H](C(=O)N[C@@H](C)C(=O)N[C@@H](CCC(N)=O)C(=O)N[C@@H](CCSC)C(=O)O)[C@@H](C)O` [Flu.PB1.535], the IC50 [6] was 527 nM, the IC50 [5] was 798 nM and the IC50 [7] was 1830 nM. For the same compound, the IC50 [2] was 477 nM.

Compound `CC[C@H](C)[C@H](NC(=O)[C@H](CC(N)=O)NC(=O)[C@H](Cc1ccc(O)cc1)NC(=O)[C@H](CC(C)C)NC(=O)[C@H](CC(N)=O)NC(=O)[C@@H]1CCCN1C(=O)CNC(=O)CNC(=O)[C@H](CC(=O)O)NC(=O)[C@H](CO)NC(=O)[C@@H](NC(=O)[C@H](CC(C)C)NC(=O)[C@H](CC(C)C)NC(=O)CNC(=O)[C@H](C)N)C(C)C)C(=O)O` [Flu.PB1.590] has an IC50 [1, 8] of 8120 nM, an IC50 [6] of 107 nM and an IC50 [5] of 3000 nM. It also gave an IC50 [7] of 3490 nM and an IC50 [2] of 105 nM.

`CC[C@H](C)[C@H](NC(=O)[C@H](CCCNC(=N)N)NC(=O)[C@H](CCCCN)NC(=O)[C@H](CC(=O)O)NC(=O)[C@H](C)NC(=O)[C@@H](NC(=O)[C@@H](NC(=O)[C@@H]1CCCN1C(=O)[C@H](Cc1ccc(O)cc1)NC(=O)[C@@H](N)CCCCN)[C@@H](C)CC)[C@@H](C)O)C(=O)N[C@@H](CCSC)C(=O)N[C@@H](CCC(=O)O)C(=O)N[C@@H](CCSC)C(=O)N[C@H](C(=O)N1CCC[C@H]1C(=O)O)[C@@H](C)CC` [Flu.PB2.57] gave an IC50 [6] of 48 nM, an IC50 [5] of 9390 nM and an IC50 [7] of 2290 nM. It also gave an IC50 [2] of 68 nM.

Work on ISGVKLESIGIYQILSI [Flu.HA.519] yielded an IC50 [5] of 3110 nM, an IC50 [2] of 408 nM and an IC50 [3] of 9.2 nM. It also gave an IC50 [4, 9] of 16 nM.

PVHFRNQVKIRRRVD [Flu.PB2.135] gave an IC50 [1, 8] of 2970 nM, an IC50 [6] of 458 nM and an IC50 [5] of 1300 nM. For the same compound, the IC50 [7] was 5980 nM and the IC50 [2] was 359 nM.
